{"source": "patent EP0330283A1", "about": "“Novel 5,6-diphenyl-1,2-dihydro-3H-pyrrolo[1,2-a]pyrrole-1-carboxylic acid derivatives” (HISAMITSU PHARMACEUTICAL CO., INC., priority 1988, dated 1989)", "key": {"[1]": {"system": "carrageenin-induced paw edema", "assay": "Inhibitory actions on carrageenin-induced paw edema in rats", "type": "in vivo", "conditions": "Rattus norvegicus, po, 60 min before carrageenin, male Wistar rats, 3 hours after induction, vs control group, read-out: Inhibition rate; for inhibition in vivo at 30 mg/kg: 30 mg/kg orally; for inhibition in vivo at 15 mg/kg: 15 mg/kg orally", "experimental": "Using, as test animals, male rats of Wistar strain each weighing approximately 150g, 0.1 ml of 1% x-carrageenin was subcutaneously injected into the paw of each rat to induce the reaction. Since then, the volume of paw edema was measured with the lapse of time. Each compound indicated in the following Table was orally administered to the rats 60 minutes before the induction of the reaction. As shown in the following Table, the results were expressed in terms of inhibition rate in comparison with those in control group 3 hours after the induction of the reaction."}, "[2]": {"system": "writhing induced by acetic acid", "assay": "Inhibitory actions on the writhing induced by acetic acid in mice", "type": "in vivo", "conditions": "30 mg/kg orally, 30 min before 0.6% acetic acid; male ddY mice; number of writhing vs control group", "experimental": "As test animals, there were provided groups consisting of 7-9 male ddY strain mice weighing 20-24g. Each of the compounds indicated in the following table was orally administered to the mice of one group. Thirty minutes later, 0.6% acetic acid was abdominally administered at a dose of 0.1ml/10g. Counting of the number of writhing was started 5 minutes later than the administration of the acetic acid and continued for 10 minutes. The inhibition rates were determined by comparing the number of writhing of the test group with that of the control group and were shown in the following Table."}, "collagen aggregation": {"system": "collagen aggregation", "assay": "Inhibitory actions on blood platelet aggregation induced by collagen (Born's nephelometry, platelet rich plasma)", "type": "cell-based", "conditions": "Oryctolagus cuniculus, collagen (10µg/ml), rabbit PRP, read-out: Inhibiting rate; for inhibition at 10 µM: final concentration 10 μM; for inhibition at 30 µM: final concentration 30 μM", "experimental": "(§1) Nine (9) ml of blood were drawn from the concha artery of a rabbit into a syringe containing therein 1 ml of a 3.2% solution of sodium citrate, after which the whole mass was centrifuged at 1100 rpm for 10 minutes to collect platelet rich plasma (PRP). The blood from which the PRP had been collected was again centrifuged at 3000 rpm for 5 minutes to collect platelet poor plasma (PPP). The PRP was adjusted to have 500,000/µl of platelets (thrombocytes) by the use of the PPP.\n(§2) Four hundred and forty-five (445)µl of the thus adjusted PRP were introduced into a cuvette, warmed to 37° C for 5 minutes, incorporated with 5µl of a solution of each of the test compounds, further warmed for two minutes and then incorporated with 50µl of collagen (10µg/ml) or 50µl of arachidonic acid (350µM) thereby to induce platelet aggregation. The platelet aggregation was measured in accordance with the Born's nephelometry by the use of an Aggregometer produced by Sysmex Co."}, "[3]": {"system": "arachidonic acid aggregation", "assay": "Inhibitory actions on blood platelet aggregation induced by arachidonic acid (Born's nephelometry, platelet rich plasma)", "type": "cell-based", "conditions": "arachidonic acid (350µM), rabbit PRP; for inhibition at 3 µM / inhibition at 10 µM / inhibition at 30 µM: Oryctolagus cuniculus, Platelet, read-out: Inhibiting rate", "experimental": "as §1, §2"}, "gastric mucous damage": {"system": "gastric mucous damage", "assay": "Gastric mucous damage test in rats", "type": "in vivo", "conditions": "10 mg/kg orally after fasting for 18 hours; male Wistar rats; stomachs observed 3.5 hours later", "experimental": "Using, as test animals, male rats of Wistar strain each weighing approximately 160g, the compounds of Examples 6 and 40 as well as indomethacin were each orally administered to the rats at the dose indicated in the following Table after their fasting for 18 hours. Three and a half (3.5) hours later, the rats were dissected to remove the stomachs therefrom. 10ml of a 70% ethanol were injected into the stomachs to fix them, and the stomachs were cut and washed with water and then visually observed to find whether ulcers were formed therein."}}, "data": [{"molecule": "CC(C)OC(=O)C1CCn2c(-c3ccc(Cl)cc3)c(-c3ccc(Cl)cc3)c(C(=O)O)c21", "note": "(racemic) [Example 4, 5,6-bis(p-chlorophenyl)-1,2-dihydro-3H-pyrrolo[1,2-a]pyrrole-1-isopropyl carboxylate ester-7-carboxylic acid]", "values": [{"measurement": "inhibition in vivo at 30 mg/kg", "setting": "[1]", "value": 31.2, "unit": "%"}, {"measurement": "Inhibition rate", "setting": "[2]", "value": 56.4, "unit": "%"}]}, {"molecule": "O=C(Nc1ccccc1)C1CCn2c1cc(-c1ccc(Cl)cc1)c2-c1ccc(Cl)cc1", "note": "(racemic) [Example 7, N-phenyl-5,6-bis(p-chlorophenyl)-1,2-dihydro-3H-pyrrolo[1,2-a]pyrrole-1-carboxylic acid amide]", "values": [{"measurement": "inhibition at 10 µM", "setting": "collagen aggregation", "value": 78, "unit": "%"}, {"measurement": "inhibition in vivo at 30 mg/kg", "setting": "[1]", "value": 37.4, "unit": "%"}]}, {"molecule": "CCCCNC(=O)C1CCn2c1cc(-c1ccc(Cl)cc1)c2-c1ccc(Cl)cc1", "note": "(racemic) [Example 8, N-bytyl-5,6-bis(p-chlorophenyl)-1,2-dihydro-3H-pyrrolo[1,2-a]pyrrole-1-carboxylic acid amide]", "values": [{"measurement": "Inhibiting rate", "setting": "[3]; final concentration 3 µM", "value": 92.5, "unit": "%"}, {"measurement": "Inhibiting rate", "setting": "[3]; final concentration 10 µM", "value": 90.2, "unit": "%"}, {"measurement": "Inhibiting rate", "setting": "[3]; final concentration 30 µM", "value": 92.5, "unit": "%"}]}, {"molecule": "O=C(O)c1c(-c2ccc(F)cc2)c(-c2ccc(F)cc2)n2c1C(C(=O)O)CC2", "note": "(racemic) [Example 17]", "values": [{"measurement": "inhibition in vivo at 30 mg/kg", "setting": "[1]", "value": 42.9, "unit": "%"}, {"measurement": "Inhibition rate", "setting": "[2]", "value": 78.4, "unit": "%"}]}, {"molecule": "CC(C)OC(=O)C1CCn2c(-c3ccc(F)cc3)c(-c3ccc(F)cc3)c(C(=O)O)c21", "note": "(racemic) [Example 25]", "values": [{"measurement": "inhibition in vivo at 30 mg/kg", "setting": "[1]", "value": 30.1, "unit": "%"}, {"measurement": "Inhibition rate", "setting": "[2]", "value": 49.1, "unit": "%"}]}, {"molecule": "Cc1ccc(-c2cc3n(c2-c2ccc(C)cc2)CCC3C(=O)O)cc1", "note": "(racemic) [Example 37]", "values": [{"measurement": "inhibition at 30 µM", "setting": "collagen aggregation", "value": 53.7, "unit": "%"}, {"measurement": "inhibition in vivo at 15 mg/kg", "setting": "[1]", "value": 27.8, "unit": "%"}, {"measurement": "Inhibition rate", "setting": "[2]", "value": 45.4, "unit": "%"}]}, {"molecule": "O=C(O)C1CCn2c1cc(-c1ccc(F)cc1)c2-c1ccc(F)cc1", "note": "(racemic) [Example 38]", "values": [{"measurement": "inhibition in vivo at 30 mg/kg", "setting": "[1]", "value": 47.9, "unit": "%"}]}, {"molecule": "COc1ccc(-c2cc3n(c2-c2ccc(OC)cc2)CCC3C(=O)O)cc1", "note": "(racemic) [Example 39]", "values": [{"measurement": "inhibition at 30 µM", "setting": "collagen aggregation", "value": 61.7, "unit": "%"}, {"measurement": "inhibition in vivo at 15 mg/kg", "setting": "[1]", "value": 34.7, "unit": "%"}]}, {"molecule": "COc1ccc(-c2c(-c3ccc(Cl)cc3)cc3n2CCC3C(=O)O)cc1", "note": "(racemic) [Example 40]", "values": [{"measurement": "inhibition at 30 µM", "setting": "collagen aggregation", "value": 63.8, "unit": "%"}, {"measurement": "inhibition in vivo at 30 mg/kg", "setting": "[1]", "value": 48.2, "unit": "%"}, {"measurement": "Inhibition rate", "setting": "[2]", "value": 87.3, "unit": "%"}]}, {"molecule": "O=C(Nc1ccc(Cl)cc1)C1CCn2c1cc(-c1ccc(Cl)cc1)c2-c1ccc(Cl)cc1", "note": "(racemic) [Example 41]", "values": [{"measurement": "inhibition at 3 µM", "setting": "[3]; final concentration 3 µM", "value": 83.4, "unit": "%"}, {"measurement": "inhibition at 10 µM", "setting": "[3]; final concentration 10 µM", "value": 88.7, "unit": "%"}, {"measurement": "inhibition at 30 µM", "setting": "[3]; final concentration 30 µM", "value": 89.4, "unit": "%"}]}, {"molecule": "O=C(Nc1ccccn1)C1CCn2c1cc(-c1ccc(Cl)cc1)c2-c1ccc(Cl)cc1", "note": "(racemic) [Example 46]", "values": [{"measurement": "inhibition at 10 µM", "setting": "collagen aggregation", "value": 64, "unit": "%"}, {"measurement": "inhibition in vivo at 30 mg/kg", "setting": "[1]", "value": 39.4, "unit": "%"}]}, {"molecule": "O=C(NCc1ccccc1)C1CCn2c1cc(-c1ccc(Cl)cc1)c2-c1ccc(Cl)cc1", "note": "(racemic) [Example 48]", "values": [{"measurement": "inhibition at 3 µM", "setting": "[3]; final concentration 3 µM", "value": 14.3, "unit": "%"}, {"measurement": "inhibition at 10 µM", "setting": "[3]; final concentration 10 µM", "value": 86.5, "unit": "%"}, {"measurement": "inhibition at 30 µM", "setting": "[3]; final concentration 30 µM", "value": 91, "unit": "%"}]}, {"molecule": "O=C(NC1CCCCC1)C1CCn2c1cc(-c1ccc(Cl)cc1)c2-c1ccc(Cl)cc1", "note": "(racemic) [Example 54]", "values": [{"measurement": "inhibition at 10 µM", "setting": "collagen aggregation", "value": 79.5, "unit": "%"}, {"measurement": "inhibition at 3 µM", "setting": "[3]; final concentration 3 µM", "value": 93.5, "unit": "%"}, {"measurement": "inhibition at 10 µM", "setting": "[3]; final concentration 10 µM", "value": 93.5, "unit": "%"}, {"measurement": "inhibition at 30 µM", "setting": "[3]; final concentration 30 µM", "value": 91.9, "unit": "%"}, {"measurement": "inhibition in vivo at 30 mg/kg", "setting": "[1]", "value": 40.2, "unit": "%"}]}, {"molecule": "O=C(NCCCN1CCOCC1)C1CCn2c1cc(-c1ccc(Cl)cc1)c2-c1ccc(Cl)cc1", "note": "(racemic) [Example 57]", "values": [{"measurement": "inhibition at 10 µM", "setting": "collagen aggregation", "value": 89.6, "unit": "%"}, {"measurement": "inhibition in vivo at 30 mg/kg", "setting": "[1]", "value": 31.9, "unit": "%"}]}, {"molecule": "CN1CCN(NC(=O)C2CCn3c2cc(-c2ccc(Cl)cc2)c3-c2ccc(Cl)cc2)CC1", "note": "(racemic) [Example 59]", "values": [{"measurement": "inhibition at 10 µM", "setting": "collagen aggregation", "value": 83.4, "unit": "%"}, {"measurement": "inhibition in vivo at 30 mg/kg", "setting": "[1]", "value": 30.5, "unit": "%"}]}, {"molecule": "O=C(C1CCn2c1cc(-c1ccc(Cl)cc1)c2-c1ccc(Cl)cc1)N1CCOCC1", "note": "(racemic) [Example 61]", "values": [{"measurement": "inhibition at 3 µM", "setting": "[3]; final concentration 3 µM", "value": 10.1, "unit": "%"}, {"measurement": "inhibition at 10 µM", "setting": "[3]; final concentration 10 µM", "value": 89.4, "unit": "%"}, {"measurement": "inhibition at 30 µM", "setting": "[3]; final concentration 30 µM", "value": 91.4, "unit": "%"}]}, {"molecule": "O=C(O)c1c(-c2ccc(Cl)cc2)c(-c2ccc(Cl)cc2)n2c1C(C(=O)O)CC2", "note": "(stereo not drawn) [Example 3, 5,6-bis(p-chlorophenyl)-1,2-dihydro-3H-pyrrolo[1,2-a]-pyrrole-1,7-dicarboxylic acid]", "values": [{"measurement": "inhibition in vivo at 30 mg/kg", "setting": "[1]", "value": 44.7, "unit": "%"}, {"measurement": "Inhibition rate", "setting": "[2]", "value": 71.5, "unit": "%"}]}, {"molecule": "O=C(O)C1CCn2c1cc(-c1ccc(Cl)cc1)c2-c1ccc(Cl)cc1", "note": "(stereo not drawn) [Example 6, 5,6-bis(p-chlorophenyl)-1,2-dihydro-3H-pyrrolo[1,2-a]pyrrole-1-carboxylic acid]", "values": [{"measurement": "inhibition in vivo at 30 mg/kg", "setting": "[1]", "value": 52.3, "unit": "%"}, {"measurement": "Inhibition rate", "setting": "[2]", "value": 81.3, "unit": "%"}]}, {"molecule": "COc1ccc2c(c1)c(CC(=O)O)c(C)n2C(=O)c1ccc(Cl)cc1", "note": "[Indomethacin]", "values": [{"measurement": "Ulcer formation", "setting": "gastric mucous damage", "value": "7/7"}]}]}
